Tested on: GAPDH mRNA
Assay: RNAi activity of GAPDH-targeting siRNA, expression of mRNA of GAPDH, HPRT1 internal control (Test Example 5)
Format: cell-based, human
Description: The RNAi activity of a GAPDH-targeting siRNA having 8-Br-dA at the 5′ end of the antisense strand was evaluated by measuring an inhibitory effect on the expression of mRNA of GAPDH as described below. In a culture dish (Multidish 24 wells, Cat. No. 142475, manufactured by Nunc, Inc.), human cervical cancer-derived cell line Hela cells (CCL-2, purchased from ATCC) were suspended in RPMI medium (Invitrogen Life Technologies, 11875093) containing 10% fetal bovine serum, and 500 μL of the resulting cell suspension was inoculated into each well to give 50000 cells/well. […]
The cells after introduction of the siRNA were cultured under the conditions of 37° C. and 5% CO2 for 24 hours. […] NM_000942) were subjected to a PCR reaction by the Taqman probe method using ABI 7900HT Fast (ABI), and the levels of amplified mRNAs of the respective genes were measured. […] Further, in the negative control group, the level of the mRNA of GAPDH and the level of the amplified mRNA of PPIB were measured in the same manner, respectively, and a semi-quantitative level of the mRNA of GAPDH was calculated using the level of the amplified mRNA of PPIB as an internal control.
The activity of the GAPDDH-targeting siRNA obtained in Example 6 was evaluated by measuring an inhibitory effect on the expression of mRNA of GAPDH in the same manner as in Test Example 4. […]

## 1096-5-F-dU: GAPDH-targeting siRNA, antisense XUACCAGGAAAUGAGCUUGAC, X = 5-fluoro-2′-deoxyuridine monophosphate
Relative ratio with negative control group taken as 1, concentration 1 pM
  level of target mRNA: 0.183
Relative ratio with negative control group taken as 1, concentration 10 pM
  level of target mRNA: 0.059
